Experimental data as given in patent publication US20230272345A1, “SELF-ASSEMBLED CELL SHEET CONSTRUCTS AND METHODS OF MAKING THEREOF” (Caro Meats Inc., priority 2020, published 2023).

Columns and labels:
C2C12 cells [1] = experiment: Effect of Lat-B on cytoskeleton reorganization / morphology of C2C12 cells (brightfield microscopy); type: cell-based
Procedure: (§1) Difference in cytoskeleton reorganization of differentiated cells vs. undifferentiated ones was studied by treating cells with Latrunculin-B (Lat-B) (Abcam, ab144291). C2C12 cells grown in GM and the partially differentiated ones in DM were treated with 100 nM Lat-B in GM and DM, respectively, for 1 hr at D1 and microscopy was performed using inverted microscope in brightfield mode. Effect of cytoskeleton reorganization on detachment of the sheets was also studied by treating the cells with 50 and 100 nM of Lat-B in DM during the 24 hrs before delamination. Lat-B stock solution was prepared by dissolving 100 μg in 1 mL DMSO.

C2C12 cells [2] = experiment: Effect of Lat-B treatment during the 24 hrs before delamination on detachment / sheet formation; type: cell-based
Procedure: In order to start the delamination process DM was replaced with acidic medium (medium A) (DM with 0.1% V/V acetic acid, final pH of ˜6) and samples were incubated for 5-10 min at 37° C. At this point that sheets started to delaminate the process was accelerated by gentle shaking of the well plate. Process could be accelerated by applying shear force using gentle pipetting of medium to the edges of the wells. Immediately after delamination was completed, medium A was replaced with basic medium (medium B, final pH of ˜8) (DM with 0.1% V/V 0.1 M sodium hydroxide in deionized water) in order to prevent samples from forming clumps. After 5 min of treatment with medium B, samples were transferred to neutral medium (medium N, pH of 7.4) (DM without any pH adjustment). In case of stacks, the required number of sheets, either 2 layers of cell sheets (double-layer constructs) or 4 layers (quadruple-layer constructs), were stacked on top of each other by simply dragging them using a tweezer and placing them on each other. This process was also performed in abundant amounts of medium B and after stacking was done, most of the media was aspirated to let the sheets settle down because of their weight for 5 more minutes and then extra medium N was added (FIG. 1B). Images of sheets were taken 1 hr after delamination/stacking and 24 hrs later using a stereomicroscope (Infinity Optical Systems). Diameter of the sheets was used using ImageJ at these time points to study effect of number of layers on shrinkage pattern of the constructs.
as §1

C2C12 cells [3] = settings: 100 nM in DM, Nowak et al. 2009; cited from earlier work

C/C1=C/C(=O)O[C@@H]2C[C@@H](CC[C@H](C)/C=C\CC1)O[C@@](O)([C@@H]1CSC(=O)N1)C2 [Lat-B, Latrunculin-B]
Morphology after 24 hr of treatment (C2C12 cells [1]; 50 nM Lat-B in DM, 24 hr (D1 to D2)): slightly round | Morphology during the first few hours (C2C12 cells [1]; 50 nM Lat-B in DM, first few hours (data not shown)): did not show significant changes in their morphology | Morphology of partially differentiated cells (C2C12 cells [1]; 100 nM Lat-B in DM, 1 hr at D1, partially differentiated C2C12): changed very fast to round cells and eventually they formed clumps of cells | Morphology after 24 hrs of treatment (C2C12 cells [1]; 100 nM Lat-B in DM, 24 hrs (D1 to D2)): regained their stretched morphology after 24 hrs of treatment but were still rounder compared to untreated cells | Morphology of undifferentiated cells (C2C12 cells [1]; 100 nM Lat-B in GM, 1 hr at D1, undifferentiated C2C12): only became slightly round | Delamination / sheet formation (C2C12 cells [2]; 50 nM Lat-B in DM for 24 hrs before delamination): started to delaminate, but the sheets were fragile and broke to smaller pieces | Delamination / sheet formation (C2C12 cells [2]; 50 nM Lat-B in DM for 24 hrs before delamination, listed as Latrunculin-B): delaminated but were fragile | Delamination / sheet formation (C2C12 cells [2]; 100 nM Lat-B in DM for 24 hrs before delamination): did not form sheets at all | Delamination / sheet formation (C2C12 cells [2]; 100 nM Lat-B in DM for 24 hrs before delamination, listed as Latrunculin-B): did not form continuous sheets | Fusion of C2C12 cells (C2C12 cells [3]): would not fuse to each other
